Experimental findings from paper PMC2904498 (2010) are described below.

Assay [1] deals with T1, T. brucei neutral sphingomyelinase (TbnSMase) (Trypanosoma brucei, UniProt B9WNA2).
T1 sequence (B9WNA2 1-580): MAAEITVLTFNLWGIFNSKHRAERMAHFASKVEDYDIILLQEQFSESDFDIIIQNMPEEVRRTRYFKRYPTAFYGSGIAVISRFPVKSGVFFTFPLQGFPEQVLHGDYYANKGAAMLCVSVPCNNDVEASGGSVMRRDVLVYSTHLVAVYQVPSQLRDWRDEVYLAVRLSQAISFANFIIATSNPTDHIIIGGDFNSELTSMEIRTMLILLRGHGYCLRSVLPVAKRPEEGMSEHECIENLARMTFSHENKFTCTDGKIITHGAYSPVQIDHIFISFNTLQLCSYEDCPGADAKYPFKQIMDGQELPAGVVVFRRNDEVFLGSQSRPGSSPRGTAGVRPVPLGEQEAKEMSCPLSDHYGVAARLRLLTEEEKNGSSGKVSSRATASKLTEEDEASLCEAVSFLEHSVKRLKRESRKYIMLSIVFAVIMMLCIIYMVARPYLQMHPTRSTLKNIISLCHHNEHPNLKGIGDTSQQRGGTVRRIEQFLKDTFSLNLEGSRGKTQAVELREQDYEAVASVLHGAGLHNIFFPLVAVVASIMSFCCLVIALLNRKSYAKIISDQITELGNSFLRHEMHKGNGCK
The class given is biochemical.

Assay [2] deals with T1, T. brucei neutral sphingomyelinase (TbnSMase). The class given is biochemical. This is another data set of the same source.

Like-named read-outs stand apart in the source and are kept apart here.

On to `CCCC[C@@H](C)/C=C(C)/C=C(\C)C(=O)NC1=C[C@@](O)(/C=C/C=C/C=C/C(=O)NC2=C(O)CCC2=O)[C@@H]2O[C@@H]2C1=O` [Manumycin A], for which the IC50 in assay [1] was found to be 24.6 ± 4.6 µM.

For `CCCCCCCCCCCCCCCCCCOCC(COP(=O)([O-])OCC[N+](C)(C)C)OC` (stereo not drawn) [edelfosine], half-maximal inhibition in assay [2] (IC50) was put at 21 ± 3.2 µM.

Consider `O=C(/C=C/c1ccc(/C=C/C(=O)Nc2ccc(C3=NCCN3)cc2)cc1)Nc1ccc(C2=NCCN2)cc1` [GW4869], for which, in assay [1], the IC50 is 14.4 ± 2.3 µM.
